Data as given in PubChem BioAssay AID1918953 (Molecular Pharmacology Branch, DTP, NCI, 2023).

Test system: MDA-MB-231 complex spheroid viability
Assay: Anticancer human tumor MDA-MB-231/ATCC cell line growth inhibition;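 also: drug exposure lasted 7 days starting on day 3 of spheroid growth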
Conditions: for IC50: curve of first compound; for viability, T/C: stronger effect = lower value
Outline: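 Complex spheroids of tumor cells with HUVEC and human MSCs, exposed to iadademstat combined with other agents. Each agent tested in half-log steps from near clinical Cmax (else 10 microM top), DMSO ≤0.25%.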

CC[C@@]1(O)C(=O)OCc2c1cc1n(c2=O)Cc2cc3c(CN(C)C)c(O)ccc3nc2-1 + NC1CCC(NC2CC2c2ccccc2)CC1
IC50 (second compound 0.1 µM): 2.37 nM | IC50 (second compound 0.316 µM): 2.18 nM | IC50 (second compound 1 µM): 2.28 nM | IC50 (second compound 3.16 µM): 1.46 nM | IC50 (second compound 10 µM): 0.603 nM | viability, T/C (second compound 0.1 µM, first compound 0.000316 µM): 91.6% | viability, T/C (second compound 0.1 µM, first compound 0.001 µM): 70.6% | viability, T/C (second compound 0.1 µM, first compound 0.00316 µM): 40.3% | viability, T/C (second compound 0.1 µM, first compound 0.01 µM): 29.1% | viability, T/C (second compound 0.1 µM, first compound 0.0316 µM): 22.5% | viability, T/C (second compound 0.1 µM, first compound 0.1 µM): 13% | viability, T/C (second compound 0.316 µM, first compound 0.000316 µM): 87.6% | viability, T/C (second compound 0.316 µM, first compound 0.001 µM): 66.3% | viability, T/C (second compound 0.316 µM, first compound 0.00316 µM): 40% | viability, T/C (second compound 0.316 µM, first compound 0.01 µM): 28.9% | viability, T/C (second compound 0.316 µM, first compound 0.0316 µM): 22.2% | viability, T/C (second compound 0.316 µM, first compound 0.1 µM): 12.4% | viability, T/C (second compound 1 µM, first compound 0.000316 µM): 87.3% | viability, T/C (second compound 1 µM, first compound 0.001 µM): 69.6% | viability, T/C (second compound 1 µM, first compound 0.00316 µM): 38.9% | viability, T/C (second compound 1 µM, first compound 0.01 µM): 29.7% | viability, T/C (second compound 1 µM, first compound 0.0316 µM): 22.4% | viability, T/C (second compound 1 µM, first compound 0.1 µM): 13.2% | viability, T/C (second compound 3.16 µM, first compound 0.000316 µM): 74.4% | viability, T/C (second compound 3.16 µM, first compound 0.001 µM): 56.8% | viability, T/C (second compound 3.16 µM, first compound 0.00316 µM): 36.5% | viability, T/C (second compound 3.16 µM, first compound 0.01 µM): 28.9% | viability, T/C (second compound 3.16 µM, first compound 0.0316 µM): 19.9% | viability, T/C (second compound 3.16 µM, first compound 0.1 µM): 13.2% | viability, T/C (second compound 10 µM, first compound 0.000316 µM): 57.8% | viability, T/C (second compound 10 µM, first compound 0.001 µM): 44.2% | viability, T/C (second compound 10 µM, first compound 0.00316 µM): 31.3% | viability, T/C (second compound 10 µM, first compound 0.01 µM): 23.2% | viability, T/C (second compound 10 µM, first compound 0.0316 µM): 16% | viability, T/C (second compound 10 µM, first compound 0.1 µM): 12.2%

CCc1c2c(nc3ccc(O)cc13)-c1cc3c(c(=O)n1C2)COC(=O)[C@]3(O)CC + NC1CCC(NC2CC2c2ccccc2)CC1
IC50 (second compound 0.1 µM): < 0.949 nM | IC50 (second compound 0.316 µM): < 0.949 nM | IC50 (second compound 1 µM): < 0.949 nM | IC50 (second compound 3.16 µM): < 0.949 nM | IC50 (second compound 10 µM): < 0.949 nM | viability, T/C (second compound 0.1 µM, first compound 0.000949 µM): 17.1% | viability, T/C (second compound 0.1 µM, first compound 0.003 µM): 12.7% | viability, T/C (second compound 0.1 µM, first compound 0.00949 µM): 12% | viability, T/C (second compound 0.1 µM, first compound 0.03 µM): 14% | viability, T/C (second compound 0.1 µM, first compound 0.0949 µM): 5.37% | viability, T/C (second compound 0.1 µM, first compound 0.3 µM): 2.95% | viability, T/C (second compound 0.316 µM, first compound 0.000949 µM): 17.7% | viability, T/C (second compound 0.316 µM, first compound 0.003 µM): 13.5% | viability, T/C (second compound 0.316 µM, first compound 0.00949 µM): 12% | viability, T/C (second compound 0.316 µM, first compound 0.03 µM): 16% | viability, T/C (second compound 0.316 µM, first compound 0.0949 µM): 5.44% | viability, T/C (second compound 0.316 µM, first compound 0.3 µM): 2.86% | viability, T/C (second compound 1 µM, first compound 0.000949 µM): 19.1% | viability, T/C (second compound 1 µM, first compound 0.003 µM): 14.6% | viability, T/C (second compound 1 µM, first compound 0.00949 µM): 13.7% | viability, T/C (second compound 1 µM, first compound 0.03 µM): 15.5% | viability, T/C (second compound 1 µM, first compound 0.0949 µM): 4.76% | viability, T/C (second compound 1 µM, first compound 0.3 µM): 2.64% | viability, T/C (second compound 3.16 µM, first compound 0.000949 µM): 17% | viability, T/C (second compound 3.16 µM, first compound 0.003 µM): 15.3% | viability, T/C (second compound 3.16 µM, first compound 0.00949 µM): 16.5% | viability, T/C (second compound 3.16 µM, first compound 0.03 µM): 13.6% | viability, T/C (second compound 3.16 µM, first compound 0.0949 µM): 4.18% | viability, T/C (second compound 3.16 µM, first compound 0.3 µM): 1.91% | viability, T/C (second compound 10 µM, first compound 0.000949 µM): 13.9% | viability, T/C (second compound 10 µM, first compound 0.003 µM): 14% | viability, T/C (second compound 10 µM, first compound 0.00949 µM): 20.1% | viability, T/C (second compound 10 µM, first compound 0.03 µM): 13.4% | viability, T/C (second compound 10 µM, first compound 0.0949 µM): 3.42% | viability, T/C (second compound 10 µM, first compound 0.3 µM): 1.8%
